Each structure is given as a SMILES string. A value given as a limit tells only on which side of the number the result lay.

For one test, the system named is alpha-smooth muscle actin (α-SMA). Nature of the test: Inhibition of TGF-β induced expression of alpha-smooth muscle actin (α-SMA) in CFSC cells (western blot). Type of test: cell-based. The conditions noted are these: compound at 10 μM, TGF-β (10 ng/mL), 24 hours, band intensity vs TGF-β only. A digest of the protocol:
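CFSC hepatic stellate cells in serum-free DMEM treated 24 h at 37 °C with compound at 10 μM plus TGF-β (10 ng/mL). α-SMA measured by Western blot with β-actin, ECL detection, densitometry. Percent inhibition is decrease in band intensity versus TGF-β-only cells.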
`CCc1ccc2c(c1)C(CC(=O)O)=C(C)/C2=C/c1ccc(COc2ccccc2)cc1` [B5, (Z)-2-(5-Ethyl-2-methyl-1-(4-(phenoxymethyl)benzylidene)-1H-inden-3-yl)acetic acid]: the inhibition at 10 µM was above 80%.
Same read-out and setting: then `CC1=C(CC(=O)O)c2c(F)cccc2/C1=C\c1ccc(COc2ccccc2)cc1` [B6, (Z)-2-(4-Fluoro-2-methyl-1-(4-(phenoxymethyl)benzylidene)-1H-inden-3-yl)-acetic acid], with above 80%.

For another test, the system named is MDA-MB-231 (breast cancer). Nature of the test: Antiproliferative activity (CCK-8 cell viability), MDA-MB-231. Type of test: cell-based. The settings on record: Homo sapiens, Compound concentration: 3.3 μM, 72 h, read-out: Antiproliferative activity in cancerous cells, MDA-MB-231 (inhibition of cell growth). Summed up:
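Growth inhibition of human MDA-MB-231 breast cancer cells was assessed with a Cell Counting Kit-8. Cells cultured in DMEM plus 10% FBS were seeded at 2,000-5,000 cells/well, treated after attachment, and kept 72 h at 37° C. CCK-8 solution (10 μL) was added for 4 h, and absorbance at 450 nm was compared with DMSO-treated controls.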
In the case of `CCc1ccc2c(c1)C(CC(=O)O)=C(C)/C2=C/c1ccc(COc2ccccc2)cc1` [B5, (Z)-2-(5-Ethyl-2-methyl-1-(4-(phenoxymethyl)benzylidene)-1H-inden-3-yl)acetic acid], the inhibition at 3.3 µM is below 30%.
Same read-out and setting: for `CC1=C(CC(=O)O)c2c(F)cccc2/C1=C\c1ccc(COc2ccccc2)cc1` [B6, (Z)-2-(4-Fluoro-2-methyl-1-(4-(phenoxymethyl)benzylidene)-1H-inden-3-yl)-acetic acid] the value was at least 50%.

The same test, now with this note: Homo sapiens, Compound concentration: 10 μM, 72 h, read-out: Antiproliferative activity in cancerous cells, MDA-MB-231 (inhibition of cell growth).
In the case of `CCc1ccc2c(c1)C(CC(=O)O)=C(C)/C2=C/c1ccc(COc2ccccc2)cc1` [B5, (Z)-2-(5-Ethyl-2-methyl-1-(4-(phenoxymethyl)benzylidene)-1H-inden-3-yl)acetic acid], the inhibition at 10 µM was at least 50%.
With `CC1=C(CC(=O)O)c2c(F)cccc2/C1=C\c1ccc(COc2ccccc2)cc1` [B6, (Z)-2-(4-Fluoro-2-methyl-1-(4-(phenoxymethyl)benzylidene)-1H-inden-3-yl)-acetic acid], the inhibition at 10 µM is at least 50%.

The subject of another test is HepG2 (liver cancer). Put plainly: Antiproliferative activity (CCK-8 cell viability), HepG2. Type of test: cell-based. The settings on record: Homo sapiens, Compound concentration: 3.3 μM, 72 h, read-out: Antiproliferative activity in cancerous cells, HepG2 (inhibition of cell growth). A digest of the protocol:
(§1)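 Growth inhibition graded in bands from percent viability against DMSO vehicle, read as CCK-8 absorbance at 450 nm. Compound tested at 3.3, 10 or 30 μM for 72 h, 37 °C; media contained 10% FBS: DMEM for HepG2/SW480, MEM for HeLa, F-12K for A549.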
For the compound `CCc1ccc2c(c1)C(CC(=O)O)=C(C)/C2=C/c1ccc(COc2ccccc2)cc1` [B5, (Z)-2-(5-Ethyl-2-methyl-1-(4-(phenoxymethyl)benzylidene)-1H-inden-3-yl)acetic acid], the inhibition at 3.3 µM was at least 50%.
Consider `CC1=C(CC(=O)O)c2c(F)cccc2/C1=C\c1ccc(COc2ccccc2)cc1` [B6, (Z)-2-(4-Fluoro-2-methyl-1-(4-(phenoxymethyl)benzylidene)-1H-inden-3-yl)-acetic acid], for which the inhibition at 3.3 µM is below 30%.

The test is the same for the next values; noted with them: Homo sapiens, Compound concentration: 10 μM, 72 h, read-out: Antiproliferative activity in cancerous cells, HepG2 (inhibition of cell growth).
Regarding `CCc1ccc2c(c1)C(CC(=O)O)=C(C)/C2=C/c1ccc(COc2ccccc2)cc1` [B5, (Z)-2-(5-Ethyl-2-methyl-1-(4-(phenoxymethyl)benzylidene)-1H-inden-3-yl)acetic acid], the inhibition at 10 µM was at least 50%.
On to `CC1=C(CC(=O)O)c2c(F)cccc2/C1=C\c1ccc(COc2ccccc2)cc1` [B6, (Z)-2-(4-Fluoro-2-methyl-1-(4-(phenoxymethyl)benzylidene)-1H-inden-3-yl)-acetic acid], for which the inhibition at 10 µM is at least 50%.

The test system of the next test is SW480 (colon cancer). Put plainly: Antiproliferative activity (CCK-8 cell viability), SW480. Type of test: cell-based. The settings on record: Homo sapiens, Compound concentration: 3.3 μM, 72 h, read-out: Antiproliferative activity in cancerous cells, SW480 (inhibition of cell growth). Summed up:
as §1
Regarding `CCc1ccc2c(c1)C(CC(=O)O)=C(C)/C2=C/c1ccc(COc2ccccc2)cc1` [B5, (Z)-2-(5-Ethyl-2-methyl-1-(4-(phenoxymethyl)benzylidene)-1H-inden-3-yl)acetic acid], the inhibition at 3.3 µM is at least 50%.
On to `CC1=C(CC(=O)O)c2c(F)cccc2/C1=C\c1ccc(COc2ccccc2)cc1` [B6, (Z)-2-(4-Fluoro-2-methyl-1-(4-(phenoxymethyl)benzylidene)-1H-inden-3-yl)-acetic acid], for which the inhibition at 3.3 µM is below 30%.

The same test, now with this note: Homo sapiens, Compound concentration: 10 μM, 72 h, read-out: Antiproliferative activity in cancerous cells, SW480 (inhibition of cell growth).
Take `CCc1ccc2c(c1)C(CC(=O)O)=C(C)/C2=C/c1ccc(COc2ccccc2)cc1` [B5, (Z)-2-(5-Ethyl-2-methyl-1-(4-(phenoxymethyl)benzylidene)-1H-inden-3-yl)acetic acid]: the inhibition at 10 µM was at least 50%.
On the same count and under the same terms, then `CC1=C(CC(=O)O)c2c(F)cccc2/C1=C\c1ccc(COc2ccccc2)cc1` [B6, (Z)-2-(4-Fluoro-2-methyl-1-(4-(phenoxymethyl)benzylidene)-1H-inden-3-yl)-acetic acid], with below 30%.

The next test deals with B16F10 (malignant melanoma). Put plainly: Antiproliferative activity (CCK-8 cell viability), B16F10. Type of test: cell-based. The conditions noted are these: Mus musculus, B16-F10, Compound concentration: 3.3 μM, 72 h, read-out: Antiproliferative activity in cancerous cells, B16F10 (inhibition of cell growth). Summed up:
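Cell growth inhibition was measured in B16F10 malignant melanoma cells with a Cell Counting Kit-8 viability assay. Cells were maintained in DMEM plus 10% fetal bovine serum, seeded at 2,000-5,000 cells/well in 96-well plates, and treated for 72 h at 37° C. Viability was expressed relative to DMSO-treated vehicle control wells.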
With `CCc1ccc2c(c1)C(CC(=O)O)=C(C)/C2=C/c1ccc(COc2ccccc2)cc1` [B5, (Z)-2-(5-Ethyl-2-methyl-1-(4-(phenoxymethyl)benzylidene)-1H-inden-3-yl)acetic acid], the inhibition at 3.3 µM was at least 50%.
Same read-out and setting: then `CC1=C(CC(=O)O)c2c(F)cccc2/C1=C\c1ccc(COc2ccccc2)cc1` [B6, (Z)-2-(4-Fluoro-2-methyl-1-(4-(phenoxymethyl)benzylidene)-1H-inden-3-yl)-acetic acid], with below 30%.

The test is the same for the next values; noted with them: Mus musculus, B16-F10, Compound concentration: 10 μM, 72 h, read-out: Antiproliferative activity in cancerous cells, B16F10 (inhibition of cell growth).
In the case of `CCc1ccc2c(c1)C(CC(=O)O)=C(C)/C2=C/c1ccc(COc2ccccc2)cc1` [B5, (Z)-2-(5-Ethyl-2-methyl-1-(4-(phenoxymethyl)benzylidene)-1H-inden-3-yl)acetic acid], the inhibition at 10 µM is at least 50%.
On the same count and under the same terms, for `CC1=C(CC(=O)O)c2c(F)cccc2/C1=C\c1ccc(COc2ccccc2)cc1` [B6, (Z)-2-(4-Fluoro-2-methyl-1-(4-(phenoxymethyl)benzylidene)-1H-inden-3-yl)-acetic acid] the value was 30 to 50%.

The test system of another test is A431 (epidermoid carcinoma). Put plainly: Antiproliferative activity (CCK-8 cell viability), A431. Type of test: cell-based. The conditions noted are these: Homo sapiens, A-431, Compound concentration: 3.3 μM, 72 h, read-out: Antiproliferative activity in cancerous cells, A431 (inhibition of cell growth). A digest of the protocol: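 This growth inhibition assay used A431 cells maintained in Dulbecco's modified Eagle's medium plus 10% fetal bovine serum. Cells were seeded in 96-well plates, treated with compound for 72 h at 37° C., and then given 10 μL CCK-8 solution. After a further 4 h, absorbance was read at 450 nm.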
Take `CCc1ccc2c(c1)C(CC(=O)O)=C(C)/C2=C/c1ccc(COc2ccccc2)cc1` [B5, (Z)-2-(5-Ethyl-2-methyl-1-(4-(phenoxymethyl)benzylidene)-1H-inden-3-yl)acetic acid]: the inhibition at 3.3 µM was at least 50%.
On the same count and under the same terms, for `CC1=C(CC(=O)O)c2c(F)cccc2/C1=C\c1ccc(COc2ccccc2)cc1` [B6, (Z)-2-(4-Fluoro-2-methyl-1-(4-(phenoxymethyl)benzylidene)-1H-inden-3-yl)-acetic acid] the value was below 30%.

Staying with this test, now noted: Homo sapiens, A-431, Compound concentration: 10 μM, 72 h, read-out: Antiproliferative activity in cancerous cells, A431 (inhibition of cell growth).
Regarding `CCc1ccc2c(c1)C(CC(=O)O)=C(C)/C2=C/c1ccc(COc2ccccc2)cc1` [B5, (Z)-2-(5-Ethyl-2-methyl-1-(4-(phenoxymethyl)benzylidene)-1H-inden-3-yl)acetic acid], the inhibition at 10 µM was at least 50%.
Same read-out and setting: then `CC1=C(CC(=O)O)c2c(F)cccc2/C1=C\c1ccc(COc2ccccc2)cc1` [B6, (Z)-2-(4-Fluoro-2-methyl-1-(4-(phenoxymethyl)benzylidene)-1H-inden-3-yl)-acetic acid], with at least 50%.

Another test relates to A549 (lung adenocarcinoma). Nature of the test: Antiproliferative activity (CCK-8 cell viability), A549. Type of test: cell-based. The settings on record: Homo sapiens, Compound concentration: 3.3 μM, 72 h, read-out: Antiproliferative activity in cancerous cells, A549 (inhibition of cell growth). Summed up:
as §1
On to `CCc1ccc2c(c1)C(CC(=O)O)=C(C)/C2=C/c1ccc(COc2ccccc2)cc1` [B5, (Z)-2-(5-Ethyl-2-methyl-1-(4-(phenoxymethyl)benzylidene)-1H-inden-3-yl)acetic acid], for which the inhibition at 3.3 µM is 30 to 50%.
Still for that read-out and setting: then `CC1=C(CC(=O)O)c2c(F)cccc2/C1=C\c1ccc(COc2ccccc2)cc1` [B6, (Z)-2-(4-Fluoro-2-methyl-1-(4-(phenoxymethyl)benzylidene)-1H-inden-3-yl)-acetic acid], with 30 to 50%.

The same test, now with this note: Homo sapiens, Compound concentration: 10 μM, 72 h, read-out: Antiproliferative activity in cancerous cells, A549 (inhibition of cell growth).
Consider `CCc1ccc2c(c1)C(CC(=O)O)=C(C)/C2=C/c1ccc(COc2ccccc2)cc1` [B5, (Z)-2-(5-Ethyl-2-methyl-1-(4-(phenoxymethyl)benzylidene)-1H-inden-3-yl)acetic acid], for which the inhibition at 10 µM was at least 50%.
The same measure, in the same setting: then `CC1=C(CC(=O)O)c2c(F)cccc2/C1=C\c1ccc(COc2ccccc2)cc1` [B6, (Z)-2-(4-Fluoro-2-methyl-1-(4-(phenoxymethyl)benzylidene)-1H-inden-3-yl)-acetic acid], with 30 to 50%.

A further test has as its system HeLa (cervical cancer). Put plainly: Antiproliferative activity (CCK-8 cell viability), HeLa. The settings on record: Homo sapiens, Compound concentration: 3.3 μM, 72 h, read-out: Antiproliferative activity in cancerous cells, HELA (inhibition of cell growth). Type of test: cell-based. Summed up:
as §1
For the compound `CCc1ccc2c(c1)C(CC(=O)O)=C(C)/C2=C/c1ccc(COc2ccccc2)cc1` [B5, (Z)-2-(5-Ethyl-2-methyl-1-(4-(phenoxymethyl)benzylidene)-1H-inden-3-yl)acetic acid], the inhibition at 3.3 µM is below 30%.
Regarding `CC1=C(CC(=O)O)c2c(F)cccc2/C1=C\c1ccc(COc2ccccc2)cc1` [B6, (Z)-2-(4-Fluoro-2-methyl-1-(4-(phenoxymethyl)benzylidene)-1H-inden-3-yl)-acetic acid], the inhibition at 3.3 µM was below 30%.

Staying with this test, now noted: Homo sapiens, Compound concentration: 10 μM, 72 h, read-out: Antiproliferative activity in cancerous cells, HELA (inhibition of cell growth).
As for `CCc1ccc2c(c1)C(CC(=O)O)=C(C)/C2=C/c1ccc(COc2ccccc2)cc1` [B5, (Z)-2-(5-Ethyl-2-methyl-1-(4-(phenoxymethyl)benzylidene)-1H-inden-3-yl)acetic acid], the inhibition at 10 µM is at least 50%.
The same measure, in the same setting: for `CC1=C(CC(=O)O)c2c(F)cccc2/C1=C\c1ccc(COc2ccccc2)cc1` [B6, (Z)-2-(4-Fluoro-2-methyl-1-(4-(phenoxymethyl)benzylidene)-1H-inden-3-yl)-acetic acid] the value was at least 50%.
